Data as given in patent publication US20160038468A1 (priority 2013, published 2016).
Converted amounts (≈) assume the structure as drawn. Where two headings read alike, the source gives them in different places.

How the values were obtained:
Type in all cases: cell-based
Gardnerella vaginalis = experiment: Agar dilution MIC (CLSI), Gardnerella vaginalis vaginal isolates; details: for Number of strains with indicated MIC: 100 samples
Atopobium vaginae = experiment: Agar dilution MIC (CLSI), Atopobium vaginae vaginal isolates; details: for Number of strains with indicated MIC: 62 samples
Mobiluncus all species = experiment: Agar dilution MIC (CLSI), Mobiluncus all species
M. curtisii = experiment: Agar dilution MIC (CLSI), M. curtisii vaginal isolates; details: for Number of strains with indicated MIC: 14 samples
Prevotella amnii = experiment: Agar dilution MIC (CLSI), Prevotella amnii vaginal isolates; details: for Number of strains with indicated MIC: 33 samples; for MIC: read-out: Minimal Inhibitory Concentration (MIC)
Prevotella bivia = experiment: Agar dilution MIC (CLSI), Prevotella bivia vaginal isolates; details: for MIC: Prevotella bivia, read-out: Minimal Inhibitory Concentration (MIC)
[1] = Gardnerella vaginalis, # tested 107
[2] = Fannyhessea vaginae, # tested 62

## CO[C@H]1/C=C/O[C@@]2(C)Oc3c(C)c(O)c4c(O)c(c5c(nc6cc(C)ccn65)c4c3C2=O)NC(=O)/C(C)=C\C=C\[C@H](C)[C@H](O)[C@@H](C)[C@@H](O)[C@@H](C)[C@H](OC(C)=O)[C@@H]1C [Rifaximin]
Gardnerella vaginalis
  share of G vaginalis strains against which the agent had activity: ~90%
Gardnerella vaginalis; [1]
  MIC50: 2 µg/mL (≈ 2.54 µM)
  MIC90: > 128 µg/mL
Gardnerella vaginalis; MIC 8 μg/ml
  Number of strains with indicated MIC: 3
Gardnerella vaginalis; MIC >[…]
  Number of strains with indicated MIC: 11
Atopobium vaginae
  number of Atopobium vaginae strains against which the agent had activity: 62 strains
Atopobium vaginae; # tested 62
  MIC Range: 0.00375 to 0.25 µg/mL
Atopobium vaginae; [2]
  MIC50: 0.00375 µg/mL (≈ 0.00477 µM)
  MIC90: 0.015 µg/mL (≈ 0.0191 µM)
Atopobium vaginae; MIC 0.00375 μg/ml
  Number of strains with indicated MIC: 43
Atopobium vaginae; MIC 0.0075 μg/ml
  Number of strains with indicated MIC: 10
Atopobium vaginae; MIC 0.015 μg/ml
  Number of strains with indicated MIC: 5
Atopobium vaginae; MIC 0.06 μg/ml
  Number of strains with indicated MIC: 1
Mobiluncus all species
  activity on Mobiluncus species: had activity
Mobiluncus all species; # tested 40
  MIC50: 0.0075 µg/mL (≈ 0.00954 µM)
  MIC90: 0.015 µg/mL (≈ 0.0191 µM)
  MIC Range: 0.0075 to 0.03 µg/mL
Mobiluncus all species; number (%) of isolates, # tested 40
  Susceptible: 40 (100) μg/ml
M. curtisii; MIC 0.015 μg/ml
  Number of strains with indicated MIC: 12
M. curtisii; MIC 0.03 μg/ml
  Number of strains with indicated MIC: 2
M. curtisii; individual isolates recovered from the vagina 2009-2012, one line per isolate (id in c0/c1 of the row), read-out: Minimal Inhibitory Concentration (MIC)
  MIC: 0.015 µg/mL (≈ 0.0191 µM)
Prevotella amnii; # tested 33
  MIC Range: 0.015 to 0.03 µg/mL
Prevotella amnii; MIC 0.015 μg/ml
  Number of strains with indicated MIC: 19
Prevotella amnii; MIC 0.03 μg/ml
  Number of strains with indicated MIC: 14
Prevotella amnii; Prevotella amnii, isolate 601203 4
  MIC: 0.015 µg/mL (≈ 0.0191 µM)
Prevotella amnii; Prevotella amnii, isolate 601256 11
  MIC: 0.03 µg/mL (≈ 0.0382 µM)
Prevotella amnii; Prevotella amnii, isolate 601258 25
  MIC: 0.015 µg/mL (≈ 0.0191 µM)
Prevotella amnii; Prevotella amnii, isolate 601261 E
  MIC: 0.015 µg/mL (≈ 0.0191 µM)
Prevotella amnii; Prevotella amnii, isolate 601266 20
  MIC: 0.03 µg/mL (≈ 0.0382 µM)
Prevotella amnii; Prevotella amnii, isolate 601278 10
  MIC: 0.015 µg/mL (≈ 0.0191 µM)
Prevotella amnii; Prevotella amnii, isolate 601287 HH
  MIC: 0.015 µg/mL (≈ 0.0191 µM)
Prevotella amnii; Prevotella amnii, isolate 601291 41
  MIC: 0.015 µg/mL (≈ 0.0191 µM)
Prevotella amnii; Prevotella amnii, isolate 601293 29
  MIC: 0.03 µg/mL (≈ 0.0382 µM)
Prevotella amnii; Prevotella amnii, isolate 601305 A
  MIC: 0.03 µg/mL (≈ 0.0382 µM)
Prevotella amnii; Prevotella amnii, isolate 601311 K
  MIC: 0.03 µg/mL (≈ 0.0382 µM)
Prevotella amnii; Prevotella amnii, isolate 601314 19
  MIC: 0.03 µg/mL (≈ 0.0382 µM)
Prevotella amnii; Prevotella amnii, isolate 601318 G
  MIC: 0.03 µg/mL (≈ 0.0382 µM)
Prevotella amnii; Prevotella amnii, isolate 601336 33
  MIC: 0.015 µg/mL (≈ 0.0191 µM)
Prevotella amnii; Prevotella amnii, isolate 601340 37
  MIC: 0.015 µg/mL (≈ 0.0191 µM)
Prevotella amnii; Prevotella amnii, isolate 601341 H
  MIC: 0.015 µg/mL (≈ 0.0191 µM)
Prevotella amnii; Prevotella amnii, isolate 601350 A
  MIC: 0.015 µg/mL (≈ 0.0191 µM)
Prevotella amnii; Prevotella amnii, isolate 601365 6
  MIC: 0.015 µg/mL (≈ 0.0191 µM)
Prevotella amnii; Prevotella amnii, isolate 601368 24
  MIC: 0.015 µg/mL (≈ 0.0191 µM)
Prevotella amnii; Prevotella amnii, isolate 601369 13
  MIC: 0.03 µg/mL (≈ 0.0382 µM)
Prevotella amnii; Prevotella amnii, isolate 601375 L
  MIC: 0.015 µg/mL (≈ 0.0191 µM)
Prevotella amnii; Prevotella amnii, isolate 601377 9
  MIC: 0.03 µg/mL (≈ 0.0382 µM)
Prevotella amnii; Prevotella amnii, isolate 601379 24
  MIC: 0.03 µg/mL (≈ 0.0382 µM)
Prevotella amnii; Prevotella amnii, isolate 601388 G
  MIC: 0.03 µg/mL (≈ 0.0382 µM)
Prevotella amnii; Prevotella amnii, isolate 601399 10
  MIC: 0.015 µg/mL (≈ 0.0191 µM)
Prevotella amnii; Prevotella amnii, isolate 601405 A
  MIC: 0.015 µg/mL (≈ 0.0191 µM)
Prevotella amnii; Prevotella amnii, isolate 601411 L
  MIC: 0.03 µg/mL (≈ 0.0382 µM)
Prevotella amnii; Prevotella amnii, isolate 601413 10
  MIC: 0.015 µg/mL (≈ 0.0191 µM)
Prevotella amnii; Prevotella amnii, isolate 601418 27
  MIC: 0.03 µg/mL (≈ 0.0382 µM)
Prevotella amnii; Prevotella amnii, isolate 601426 A
  MIC: 0.015 µg/mL (≈ 0.0191 µM)
Prevotella amnii; Prevotella amnii, isolate 601430 14
  MIC: 0.015 µg/mL (≈ 0.0191 µM)
Prevotella amnii; Prevotella amnii, isolate 601434 13
  MIC: 0.015 µg/mL (≈ 0.0191 µM)
Prevotella amnii; Prevotella amnii, isolate 601458 13
  MIC: 0.03 µg/mL (≈ 0.0382 µM)
Prevotella amnii; Prevotella amnii, # tested 33
  MIC50: 0.015 µg/mL (≈ 0.0191 µM)
  MIC90: 0.03 µg/mL (≈ 0.0382 µM)
Prevotella bivia; # tested 34
  MIC Range: 0.125 to 1 µg/mL
Prevotella bivia; isolate 601096 25
  MIC: 0.125 µg/mL (≈ 0.159 µM)
Prevotella bivia; isolate 601166 M
  MIC: 0.125 µg/mL (≈ 0.159 µM)
Prevotella bivia; isolate 601202 21
  MIC: 0.5 µg/mL (≈ 0.636 µM)
Prevotella bivia; isolate 601203 5
  MIC: 0.125 µg/mL (≈ 0.159 µM)
Prevotella bivia; isolate 601209 A1
  MIC: 0.125 µg/mL (≈ 0.159 µM)
Prevotella bivia; isolate 601212 9
  MIC: 0.125 µg/mL (≈ 0.159 µM)
Prevotella bivia; isolate 601213 9A
  MIC: 0.25 µg/mL (≈ 0.318 µM)
Prevotella bivia; isolate 601214 B
  MIC: 0.25 µg/mL (≈ 0.318 µM)
Prevotella bivia; isolate 601241 13
  MIC: 0.125 µg/mL (≈ 0.159 µM)
Prevotella bivia; isolate 601243 15
  MIC: 0.125 µg/mL (≈ 0.159 µM)
Prevotella bivia; isolate 601255 10
  MIC: 0.25 µg/mL (≈ 0.318 µM)
Prevotella bivia; isolate 601261 C
  MIC: 0.25 µg/mL (≈ 0.318 µM)
Prevotella bivia; isolate 601283 20
  MIC: 0.25 µg/mL (≈ 0.318 µM)
Prevotella bivia; isolate 601285 14
  MIC: 0.125 µg/mL (≈ 0.159 µM)
Prevotella bivia; isolate 601293 22
  MIC: 0.25 µg/mL (≈ 0.318 µM)
Prevotella bivia; isolate 601305 H
  MIC: 0.125 µg/mL (≈ 0.159 µM)
Prevotella bivia; isolate 601340 31
  MIC: 0.25 µg/mL (≈ 0.318 µM)
